In patent US11242537B2, “Method for improving sensitivity of plant to gibberellin inhibitor and use thereof” (CHINA AGRICULTURAL UNIVERSITY, priority 2017, dated 2022):

Tests used:
[1] = test system: ga1-1; experiment: Effect of DPC on plant height (step 4.1), mutant ga1-1; format: in vivo, Arabidopsis thaliana; details: for Plant height: 12 days; for Plant height reduction rate: relative to 0 mg/L
Protocol: (§1) In the following examples, the growth conditions of Arabidopsis thaliana are: culturing in a growth chamber with a photoperiod of 16 h light/8 h dark, a light intensity of 60 μmol/m^2/s, a humidity of 60%-70%, and a temperature of 22° C.
(§2) The experiment was repeated three times, and the specific steps of each repeated experiment were as follows:
(§3) When the ga1-1 was cultured to the 33rd day of sowing (the day of sowing was recorded as the first day of sowing), 30 plants were taken and randomly divided into three groups, ten plants in each group and the plants of these three groups were treated as follows, respectively: one group was sprayed with 0 mg/L DPC solution and cultured for 12 days to obtain untreated ga1-1; one group was sprayed with 30 mg/L aqueous DPC solution and cultured for 12 days to obtain 30 mg/L DPC-treated ga1-1; the last group was sprayed with 500 mg/L DPC solution and cultured for 12 days to obtain 500 mg/L DPC-treated ga1-1.
(§4) The plant heights of the above Arabidopsis thaliana before the treatment (FIG. 1) and after different treatments (FIG. 2 and Table 2) were measured.

[2] = test system: pSuper1300::ga1-5; experiment: Effect of DPC on plant height (step 4.1), empty vector pSuper1300::ga1-5; format: in vivo, Arabidopsis thaliana; details: for Plant height: 12 days; for Plant height reduction rate: relative to 0 mg/L
Protocol: as §1, §2
(§5) Thirty homozygous line plants of the HRP::ga1-1 of step 2 were randomly selected and randomly divided into three groups, ten plants in each group. On the 33rd day of sowing (the day of sowing was recorded as the first day of sowing), the plants of these three groups were treated as follows, respectively one group was sprayed with water (i.e., 0 mg/L DPC solution) and cultured for 12 days to obtain untreated HRP::ga1-1; one group was sprayed with 30 mg/L DPC solution and cultured for 12 days to obtain 30 mg/L DPC-treated HRP::ga1-1; the last group was sprayed with 500 mg/L aqueous DPC solution and cultured for 12 days to obtain 500 mg/L DPC-treated HRP::ga1-1.
(§6) According to the above method, the homozygous line plants of the HRP::ga1-1 were replaced with the homozygous line plants of the HRP::ga1-5, the homozygous line plants of the ZmCPS::ga1-1, the homozygous line plants of the ZmCPS::ga1-5, the homozygous line plants of the PsSuper1300::ga1-1 and the homozygous line plants of the PsSuper1300::ga1-5 respectively, the other steps were unchanged, and untreated HRP::ga1-5, 30 mg/L DPC-treated HRP::ga1-5, 500 mg/L DPC-treated HRP::ga1-5, untreated ZmCPS::ga1-1, 30 mg/L DPC-treated ZmCPS::ga1-1, 500 mg/L DPC-treated ZmCPS::ga1-1, untreated ZmCPS::ga1-5, 30 mg/L DPC-treated ZmCPS::ga1-5, 500 mg/L DPC-treated ZmCPS::ga1-5, untreated PsSuper1300::ga1-1, 30 mg/L DPC-treated PsSuper1300::ga1-1, 500 mg/L DPC-treated PsSuper1300::ga1-1, untreated PsSuper1300::ga1-5, 30 mg/L DPC-treated PsSuper1300::ga1-5 and 500 mg/L DPC-treated PsSuper1300::ga1-5 were obtained, respectively.
as §4

[3] = test system: transgenic zmcps-ko line with the HRP, line No. 623; experiment: Sensitivity of transgenic zmcps-ko line with the HRP to DPC, line No. 623; format: in vivo, maize; details: 500 ppm (5 mM) DPC spray
Description: (§7) The GV3101-pSuper1300-HRP of Example 1 was transformed into the ZmCPSKO maize embryos of step 1.1 by using the Agrobacterium to infect the maize immature embryos, and positive transgenic maize with the HRP was obtained by screening, and the transgenic maize with the HRP contained the target gene HRP. The GV3101-pSuper1300-ZmCPS and GV3101-pSuper1300 were used as controls, and the ZmCPS control maize and empty vector control maize were obtained, respectively.
(§8) The WT and transgenic plants were sprayed with DPC during jointing stage to test their DPC sensitivity: the whole plant was sprayed with 500 ppm […] DPC when the maize was grown to 7 leaf expansion phase and 12 leaf expansion phase. Plant height and ear height were measured 2 weeks after treatment and after tasseling.

[4] = test system: ga1-5; experiment: Effect of DPC on plant height (step 4.1), mutant ga1-5; format: in vivo, Arabidopsis thaliana; details: for Plant height: 12 days; for Plant height reduction rate: relative to 0 mg/L
Protocol: as §1, §2, §3
According to the above method, the ga1-1 was replaced with the ga1-5, the other steps were unchanged, and untreated ga1-5, 30 mg/L DPC-treated ga1-5, and 500 mg/L DPC-treated ga1-5 were obtained, respectively.
as §4

[5] = test system: pSuper1300::ga1-1; experiment: Effect of DPC on plant height (step 4.1), empty vector pSuper1300::ga1-1; format: in vivo, Arabidopsis thaliana; details: for Plant height: 12 days; for Plant height reduction rate: relative to 0 mg/L
Protocol: as §1, §2, §5, §6, §4

[6] = test system: HRP::ga1-5; experiment: Effect of DPC on plant height (step 4.1), HRP::ga1-5; format: in vivo, Arabidopsis thaliana; details: for Plant height / Plant height reduction rate: HRP::ga1-5; for Plant height: 12 days; for Plant height reduction rate: relative to 0 mg/L
Protocol: as §1, §2, §5, §6, §4

[7] = test system: transgenic zmcps-ko line with the HRP, line No. 614; experiment: Sensitivity of transgenic zmcps-ko line with the HRP to DPC, line No. 614; format: in vivo, maize; details: 500 ppm (5 mM) DPC spray
Description: as §7, §8

[8] = test system: HRP::ga1-5; experiment: Effects of different concentrations of DPC on plant height (step 4.2), HRP::ga1-5; format: in vivo, Arabidopsis thaliana
Protocol: as §1, §2
Seventy homozygous line plants of the HRP::ga1-1 of step 2 were randomly selected and randomly divided into seven groups, ten plants in each group. On the 33rd day of sowing (the day of sowing was recorded as the first day of sowing), the plants of these seven groups were treated as follows, respectively: one group was sprayed with water (i.e., 0 mg/L aqueous DPC solution) and cultured for 12 days to obtain untreated HRP::ga1-1; one group was sprayed with 30 mg/L aqueous DPC solution and cultured for 12 days to obtain 30 mg/L DPC-treated HRP::ga1-1; one group was sprayed with 50 mg/L aqueous DPC solution and cultured for 12 days to obtain 50 mg/L DPC-treated HRP::ga1-1; one group was sprayed with 100 mg/L aqueous DPC solution and cultured for 12 days to obtain 100 mg/L DPC-treated HRP::ga1-1; one group was sprayed with 300 mg/L aqueous DPC solution and cultured for 12 days to obtain 300 mg/L DPC-treated HRP::ga1-1; one group was sprayed with 500 mg/L aqueous DPC solution and cultured for 12 days to obtain 500 mg/L DPC-treated HRP::ga1-1; one group was sprayed with 1000 mg/L aqueous DPC solution and cultured for 12 days to obtain 1000 mg/L DPC-treated HRP::ga1-1.
According to the above method, the homozygous line plant of the HRP::ga1-1 was replaced with the pure homozygous line plant of the HRP::ga1-5, and the other steps were unchanged to obtain untreated HRP::ga1-5, 30 mg/L DPC-treated HRP::ga1-5, 50 mg/L DPC-treated HRP::ga1-5, 100 mg/L DPC-treated HRP::ga1-5, 300 mg/L DPC-treated HRP::ga1-5, 500 mg/L DPC-treated HRP::ga1-5 and 1000 mg/L DPC-treated HRP::ga1-5, respectively.
The plant heights of the differently treated Arabidopsis thaliana were measured respectively (FIG. 3), and the average plant heights are shown in Table 3.

C[N+]1(C)CCCCC1.[Cl-] [DPC, 1,1-dimethylpiperidinium chloride]
Plant height ([1]; 30 mg/L DPC spray): 4.13 ± 0.25 cm | Plant height reduction rate ([1]; 30 mg/L DPC): 13.60% | Plant height ([1]; 500 mg/L DPC spray): 3.95 ± 0.10 cm | Plant height reduction rate ([1]; 500 mg/L DPC): 17.36% | Plant height ([2]; 30 mg/L DPC spray): 6.54 ± 0.20 cm | Plant height reduction rate ([2]; 30 mg/L DPC): 5.90% | Plant height ([2]; 500 mg/L DPC spray): 6.21 ± 0.14 cm | Plant height reduction rate ([2]; 500 mg/L DPC): 10.65% | Ear height [3]: 75.2 | Plant height at 2 weeks after treatment [3]: 133.5 | Plant height at tasseling stage [3]: 182.8 | Plant height ([4]; 30 mg/L DPC spray): 6.55 ± 0.10 cm | Plant height reduction rate ([4]; 30 mg/L DPC): 6.83% | Plant height ([4]; 500 mg/L DPC spray): 6.40 ± 0.12 cm | Plant height reduction rate ([4]; 500 mg/L DPC): 8.96% | Plant height ([5]; 30 mg/L DPC spray): 4.33 ± 0.27 cm | Plant height reduction rate ([5]; 30 mg/L DPC): 4.84% | Plant height ([5]; 500 mg/L DPC spray): 3.98 ± 0.17 cm | Plant height reduction rate ([5]; 500 mg/L DPC): 12.53% | Plant height of HRP::ga1-5 as multiple of correspondingly treated ZmCPS::ga1-5 ([6]; 30 mg/L DPC): 0.64 times | Plant height of HRP::ga1-5 as multiple of correspondingly treated ga1-5 ([6]; 30 mg/L DPC): 1.65 times | Plant height reduction rate of HRP::ga1-5 as multiple of that of ga1-5 ([6]; 30 mg/L DPC): 4.68 times | Plant height of HRP::ga1-5 as multiple of correspondingly treated ZmCPS::ga1-5 ([6]; 500 mg/L DPC): 0.38 times | Plant height of HRP::ga1-5 as multiple of correspondingly treated ga1-5 ([6]; 500 mg/L DPC): 1.00 times | Plant height reduction rate of HRP::ga1-5 as multiple of that of ga1-5 ([6]; 500 mg/L DPC): 6.66 times | Plant height ([6]; 30 mg/L DPC spray): 10.80 ± 0.43 cm | Plant height reduction rate ([6]; 30 mg/L DPC): 31.99% | Plant height ([6]; 500 mg/L DPC spray): 6.41 ± 0.18 cm | Plant height reduction rate ([6]; 500 mg/L DPC): 59.63% | Ear height [7]: 80.5 | Plant height at 2 weeks after treatment [7]: 133.2 | Plant height at tasseling stage [7]: 197.9 | Plant height (average) ([8]; 30 mg/L DPC spray, 12 days (step 4.2)): 11.93 cm | Plant height (average) ([8]; 50 mg/L DPC spray, 12 days): 9.843 cm | Plant height (average) ([8]; 100 mg/L DPC spray, 12 days): 10.14 cm | Plant height (average) ([8]; 300 mg/L DPC spray, 12 days): 9.957 cm
